Assay results published in patent US12065427B2, “Heterocyclic compounds capable of activating STING” (BOEHRINGER INGELHEIM INTERNATIONAL GMBH, priority 2021, dated 2024).

Tests used:
STING R232H-variant = molecular target: T1, STING R232H-variant (Homo sapiens, UniProt Q86WV6); experiment: IRF-inducible SEAP reporter assay in THP1-Blue ISG cells, STING R232H-variant; type: cell-based; conditions: 24 hours incubation
T1 construct: expressed in transfected cells; host or cells: THP1-Blue ISG hSTING KO clone, retroviral MSCV-ires-GFP-Blasti
T1 sequence (Q86WV6 whole entry, stated change not applied): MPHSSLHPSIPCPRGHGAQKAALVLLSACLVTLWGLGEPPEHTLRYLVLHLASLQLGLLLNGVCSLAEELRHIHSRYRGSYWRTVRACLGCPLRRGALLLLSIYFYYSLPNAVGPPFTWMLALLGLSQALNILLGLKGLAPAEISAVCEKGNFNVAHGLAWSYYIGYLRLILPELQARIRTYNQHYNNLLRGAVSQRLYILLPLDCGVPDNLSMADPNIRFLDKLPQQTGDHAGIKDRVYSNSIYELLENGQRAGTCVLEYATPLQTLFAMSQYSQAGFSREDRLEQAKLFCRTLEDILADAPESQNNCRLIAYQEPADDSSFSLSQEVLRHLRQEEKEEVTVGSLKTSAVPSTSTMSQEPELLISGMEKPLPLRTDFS
Excerpt: (§1) In Vitro Cytokine Induction Measured Via Activation of an Interferon Regulatory Factor Inducible Reporter Gene
(§2) Activation of the STING protein expressed in cell lines results in an increase of interferon production. By the stable integration of an interferon regulatory factor (IRF)-inducible SEAP gene (secreted embryonic alkaline phosphatase) reporter construct the functional interferon signaling pathway can be monitored. Using Invivogen's THP1-Blue™ ISG colorimetric enzyme assay and a suitable optical density (OD) reader the activity of SEAP can be detected and quantified. This technique could be used to characterize pharmacological modification of the STING pathway.
(§3) Several single nucleotide polymorphisms have been identified in the human STING gene. To determine the activity of the above described compounds, THP1-Blue™ ISG reporter cell lines expressing the different human STING variants have been generated. To do so, the endogenous human STING was first deleted using the CRISPR/CAS9 system: THP1-Blue ISG cells were electroporated with ALL-IN-ONE CRISPR plasmids targeting the STING gene (purchased from Sigma encoding the gRNA and GFP as a reporter gene for successful transduction). GFP positive cells then were sorted 24 h post transfection and expanded. Cells were then dispersed in semisolid methocel medium to allow single cell clone isolations. Clones were then screened for cGAMP responsiveness using the Quanti-Blue™ reporter assay. Non-responsive clones were subsequently analysed for STING loss by western blotting and sequencing of the STING locus.
(§4) For the overexpression of the human STING variants, a confirmed THP1-Blue™ ISG hSTING KO clone was transduced with individual retroviral plasmids (MSCV-ires-GFP-Blasti) encoding the allelic variants of hSTING (WT (H232R), HAQ, R232H, AQ and R293Q). Transduced cells were sorted for different levels of GFP fluorescence and STING allele expression was analysed by western blot.
(§5) Measurements of SEAP activity were performed in THP1-Blue™ ISG cells stably expressing the different human STING isoforms and the IRF-inducible SEAP reporter construct. Cells were cultivated in RPMI1640 medium with 10% fetal calf serum, 50 μg/ml Penicillin-Streptomycin, 100 μg/ml Zeocin, and 100 μg/ml Normocin in a 37°, 95% humidity and 5% CO2 incubator.
(§6) In preparation for the assay, the cells were distributed into the assay plates with a density of 10000 cells/15 μL per well. Compounds were prepared by an 8 point serial dilution in 50% aqueous DMSO and a final dilution step into medium to ensure a final DMSO concentration of 0.5% in the assay. 5 μL of diluted compounds were added to the plates, followed by a 24 hours incubation at 37° C.
(§7) At the day of the assay, 75 μl per well of Quanti-Blue™ reagent was added to all wells of the plate and the plate was incubated another 30 minutes at 37° C. The OD at 620 nm was measured on the EnVision reader (PerkinElmer).
(§8) EC50 values and Hill slopes were derived from 8-point four parametric non-linear curve fittings with the Megalab software (Boehringer Ingelheim) using the OD at 620 nm.
(§9) Data of EC50 values can be found in tables 2a-2e.
Data of EC50 values on STING R232H-variant can be found in table 2c: […]

STING H232R-variant = molecular target: T2, STING H232R-variant (Homo sapiens, UniProt Q86WV6, H232R); experiment: IRF-inducible SEAP reporter assay in THP1-Blue ISG cells, STING H232R-variant; type: cell-based; conditions: STING H232R-variant (WT), 24 hours incubation
T2 construct: expressed in transfected cells; host or cells: THP1-Blue ISG hSTING KO clone, retroviral MSCV-ires-GFP-Blasti
T2 sequence (Q86WV6 whole entry H232R): as the sequence (Q86WV6 whole entry, stated change not applied) above, with H232R counted along it
Excerpt: as §1, §2, §3, §4, §5, §6, §7, §8, §9
Data of EC50 values on STING H232R-variant can be found in table 2b: […]

STING HAQ-variant = molecular target: T3, STING HAQ-variant (Homo sapiens, UniProt Q86WV6, G230A/H232R/R293Q/R71H); experiment: IRF-inducible SEAP reporter assay in THP1-Blue ISG cells, STING HAQ-variant; type: cell-based; conditions: STING HAQ-variant (parental or re-introduced), 24 hours incubation
T3 construct: parental THP1-Blue™ ISG cell lines (which express endogenously HAQ); host or cells: THP1-Blue ISG (parental, endogenous HAQ) or STING-KO clone re-transduced with HAQ (MSCV-ires-GFP-Blasti)
T3 sequence (Q86WV6 whole entry R71H/G230A/H232R/R293Q): as the sequence (Q86WV6 whole entry, stated change not applied) above, with R71H, G230A, H232R, R293Q counted along it
Excerpt: as §1, §2, §3, §4, §5, §6, §7, §8, §9
Data of EC50 values on STING HAQ-variant can be found in table 2a. Shown data below were either derived from the parental THP1-Blue™ ISG cell lines (which express endogenously HAQ) or from genetically engineered THP1-Blue™ ISG cell lines in which first STING has been knocked-out and the HAQ specific STING isoform has been re-introduced as described above.

STING R293Q-variant = molecular target: T4, STING R293Q-variant (Homo sapiens, UniProt Q86WV6, H232R/R293Q); experiment: IRF-inducible SEAP reporter assay in THP1-Blue ISG cells, STING R293Q-variant; type: cell-based; conditions: 24 hours incubation
T4 construct: expressed in transfected cells; host or cells: THP1-Blue ISG hSTING KO clone, retroviral MSCV-ires-GFP-Blasti
T4 sequence (Q86WV6 whole entry H232R/R293Q): as the sequence (Q86WV6 whole entry, stated change not applied) above, with H232R, R293Q counted along it
Excerpt: as §1, §2, §3, §4, §5, §6, §7, §8, §9
Data of EC50 values on STING R293Q-variant can be found in table 2d: […]

in vitro = conditions: human, Caco-2, pH 7.4
STING AQ-variant = molecular target: T5, STING AQ-variant (Homo sapiens, UniProt Q86WV6, G230A/H232R/R293Q); experiment: IRF-inducible SEAP reporter assay in THP1-Blue ISG cells, STING AQ-variant; type: cell-based; conditions: 24 hours incubation
T5 construct: expressed in transfected cells; host or cells: THP1-Blue ISG hSTING KO clone, retroviral MSCV-ires-GFP-Blasti
T5 sequence (Q86WV6 whole entry G230A/H232R/R293Q): as the sequence (Q86WV6 whole entry, stated change not applied) above, with G230A, H232R, R293Q counted along it
Excerpt: as §1, §2, §3, §4, §5, §6, §7, §8, §9
Data of EC50 values on STING AQ-variant can be found in table 2e: […]

[1] = test system: Human STING (hSTING, residues 155-341); experiment: Interaction with hSTING as determined by Differential Scanning Fluorimetry (DSF); type: binding; conditions: 100 μM test compounds, 5 μM target protein
Protocol: Interaction with hSTING as Determined by Differential Scanning Fluorimetry (DSF)
In DSF, the temperature at which a protein unfolds, also called the melting temperature Tm, is measured by changes in fluorescence of a dye that binds to the hydrophobic parts of the protein. Tm shifts upon binding of a small molecule are correlated with the binding affinity of this small molecule. As target protein, Human STING (hSTING, residues 155-341, MW: 21578.4 Da; protein stock solution: c=1302 μM stock solution in 20 mM Tris, 100 mM NaCl, 2 mM TCEP pH 8.8) was used, as assay buffer 20 mM Tris, 150 mM NaCI pH7.5 was added where and as necessary.
Final concentrations of components in assay: 100 μM test compounds, 5 μM target protein, “5×” SYPR Orange (from stock solution SYPRO orange solution in DMSO (invitrogen cat.-no. S6650-500 ul), concentration “5000×”)
1) Dilutions of compound stock solutions (10 mM in DMSO) were prepared in assay buffer (20 mM Tris, 150 mM NaCl; pH7.5)
2) 5 μl fluorescent dye stock solution (5000×SYPRO Orange in DMSO) was mixed with 19 μl target protein (1302 μM) and 976 μl assay buffer.
3) 2 μl of this protein-dye-mixture (25×SYPRO Orange and 25 μM Protein) was added to 8 μl diluted compound solution as prepared in step 1. Final volume was 10 μl.
4) With every 20 compounds, two negative controls were measured.
5) The plates were prepared for duplicate measurement and centrifuged for 2 min at 1000 g.
6) For the measurement, a CFX384 Real-Time System (Bio-Rad) was used. The run consisted of 140 cycles with 0.5° C./cycle (temperature ramp 15 s/cycle, 25° C. to 95° C.).
Data analysis: The melting curves were processed in Bio-Rad CFX Manager. Peak type was set to “negative”. Two replicates of TM (melting temperature) measurements were averaged and the standard deviation was calculated.

Structure (SMILES)	EC50 (STING R232H-variant)	EC50 (STING H232R-variant)	EC50 (STING HAQ-variant)	EC50 (STING R293Q-variant)	efflux ratio at 10 μM (in vitro)	EC50 (STING AQ-variant)	Papp A→B at 10 μM (in vitro)	thermal shift (ΔTm) [1]
Cn1cc2c(-c3nn(-c4ccc(N5CC6C(C5)C6C(=O)O)nc4)c4c(Br)cccc34)cccc2n1 (stereo not drawn) [compound 64, 3-(5-{7-bromo-2′-methyl-1H,2′H-[3,4′-biindazol]-1-yl}pyridin-2-yl)-3-azabicy-clo[3.1.0]hexane-6-car-boxylic acid]	600 nM	200 nM	700 nM	500 nM				
COC(=O)C1C2CN(c3ccc(-n4nc(-c5cccc6nn(C)cc56)c5cccc(C)c54)cn3)CC21 (stereo not drawn) [Example #1, Methyl 3-(5-(2′,7-dimethyl-1H,2′H-[3,4′-biindazol]-1-yl)pyridin-2-yl)-3-azabicyclo[3.1.0]hexane-6-carboxylate]	200 nM	200 nM	700 nM	400 nM	0.4	200 nM		21 K
CCc1cccc2c(-c3cccc4nn(C)cc34)nn(-c3ccc(N4CC5C(C4)C5C(=O)O)nc3)c12 (stereo not drawn) [compound 65, 3-(5-{7-ethyl-2′-methyl-1H,2′H-[3,4′-biindazol]-1-yl}pyridin-2-yl)-3-azabicy-clo[3.1.0]hexane-6-car-boxylic acid]	100 nM	100 nM	200 nM	100 nM		100 nM		21 K
Cc1cccc2c(-c3cccc4nn(C)cc34)nn(-c3ccc(N4CCn5cncc5C4)nc3)c12 [compound 12, 1-(6-{5H,6H,7H,8H-imidazo[1,5-a]pyrazin-7-yl}pyridin-3-yl)-2′,7-dimethyl-1H,2'H-3,4′-biindazole]	600 nM	400 nM	1900 nM	2100 nM	0.4		11 ×10⁻⁶ cm/s	21 K
Cc1cccc2c(-c3cccc4nn(C)cc34)nn(-c3ccc(N4CC5C(C4)C5C(N)=O)nc3)c12 (stereo not drawn) [compound 72, 3-(5-{2′,7-dimethyl-1H,2′H-[3,4′-biindazol]-1-yl}pyridin-2-yl)-3-azabicyclo[3.1.0]hexane-6-carboxamide]	300 nM	600 nM	1800 nM	700 nM		800 nM		18 K
Cc1cccc2c(-c3cccc4nn(C)cc34)nn(-c3ccc(N4CC5(CN(C=O)C5)C4)nc3)c12 [compound 54, 6-(5-{2′,7-dimethyl-1H,2′H-[3,4′-biinda-zol]-1-yl}pyridin-2-yl)-2,6-diaza-spiro[3.3]heptane-2-carbaldehyde]		300 nM	2100 nM		0.8	5300 nM	38 ×10⁻⁶ cm/s	21 K
Cc1cccc2c(-c3cccc4nn(C)cc34)nn(-c3ccc(NCc4cncnc4)nc3)c12 [compound 24, 5-{2′,7-dimethyl-1H,2′H-[3,4′-biindazol]-1-yl}-N-[(pyrimidin-5-yl)methyl]pyridin-2-amine]	2300 nM	2000 nM	2700 nM	2200 nM				

Further lines, with some results ahead:

EC50 (STING R232H-variant)	EC50 (STING H232R-variant)	EC50 (STING HAQ-variant)	EC50 (STING R293Q-variant)	efflux ratio at 10 μM (in vitro)	EC50 (STING AQ-variant)	Papp A→B at 10 μM (in vitro)	Structure (SMILES)	thermal shift (ΔTm) [1]
50 nM	50 nM	300 nM	300 nM		200 nM		Cc1cccc2c(-c3cccc4nn(C)cc34)nn(-c3ccc(N4CCN(C=O)CC4)nc3)c12 [compound 51, 4-(5-(2′,7-dimethyl-1H,2′H-[3,4′-biindazol]-1-yl)pyridin-2-yl)piperazine-1-carbaldehyde]	15 K
200 nM	100 nM	700 nM	700 nM	1.6	700 nM	10 ×10⁻⁶ cm/s	Cc1cccc2c(-c3cccc4nn(C)cc34)nn(-c3ccc(N4CCC(S(N)(=O)=O)CC4)nc3)c12 [Example #22, 1-(5-{2′,7-dimethyl-1H,2′H-[3,4'′biindazol]-1-yl}pyri-din-2-yl)piperidine-4-sul-fonamide]	23 K
800 nM	400 nM	3000 nM	2200 nM	0.6	2100 nM	21 ×10⁻⁶ cm/s	Cc1cccc2c(-c3cccc4nn(C)cc34)nn(-c3ccc(N4CCC(NS(C)(=O)=O)CC4)nc3)c12 [compound 56, N-[1-(5-{2′,7-dimethyl-1H,2′H-[3,4′-biindazol]-1-yl}pyridin-2-yl)piperidin-4-yl]methanesulfonamide]	20 K
1000 nM	500 nM	1400 nM	1200 nM				Cc1cccc2c(-c3cccc4nn(C)cc34)nn(-c3ccc(N4CCS(=O)(=O)CC4)nc3)c12 [Example #5, 4-(5-{2,7-dimethyl-1H,2′H-[3,4′-biindazol]-1-yl}pyri-din-2-yl)-1λ^6-thiomorpho-line-1,1-dione]	
200 nM	300 nM	1600 nM	700 nM		800 nM		CCc1cccc2c(-c3cccc4nn(C)cc34)nn(-c3ccc(N4CCC(C(=O)O)CC4)nc3)c12 [Example #66, 1-(5-{7-ethyl-2′-methyl-1H,2′H-[3,4′-biindazol]-1-yl}pyridin-2-yl)piperidine-4-carboxylic acid]	16 K
